Reference: patent US20110245228A1, “PROTEIN KINASE C ACTIVITY ENHANCER CONTAINING ALKYL ETHER DERIVATIVE OR SALT THEREOF” (Toyama Chemical Co., Ltd., priority 2006, published 2011)

Target: T1, PKCε (Rattus norvegicus, UniProt P09216)
T1 construct: endogenous in cells; host or cells: primary cultured cerebral cortex cells from 18-day Wistar/ST rat fetuses
T1 sequence (P09216 1-737): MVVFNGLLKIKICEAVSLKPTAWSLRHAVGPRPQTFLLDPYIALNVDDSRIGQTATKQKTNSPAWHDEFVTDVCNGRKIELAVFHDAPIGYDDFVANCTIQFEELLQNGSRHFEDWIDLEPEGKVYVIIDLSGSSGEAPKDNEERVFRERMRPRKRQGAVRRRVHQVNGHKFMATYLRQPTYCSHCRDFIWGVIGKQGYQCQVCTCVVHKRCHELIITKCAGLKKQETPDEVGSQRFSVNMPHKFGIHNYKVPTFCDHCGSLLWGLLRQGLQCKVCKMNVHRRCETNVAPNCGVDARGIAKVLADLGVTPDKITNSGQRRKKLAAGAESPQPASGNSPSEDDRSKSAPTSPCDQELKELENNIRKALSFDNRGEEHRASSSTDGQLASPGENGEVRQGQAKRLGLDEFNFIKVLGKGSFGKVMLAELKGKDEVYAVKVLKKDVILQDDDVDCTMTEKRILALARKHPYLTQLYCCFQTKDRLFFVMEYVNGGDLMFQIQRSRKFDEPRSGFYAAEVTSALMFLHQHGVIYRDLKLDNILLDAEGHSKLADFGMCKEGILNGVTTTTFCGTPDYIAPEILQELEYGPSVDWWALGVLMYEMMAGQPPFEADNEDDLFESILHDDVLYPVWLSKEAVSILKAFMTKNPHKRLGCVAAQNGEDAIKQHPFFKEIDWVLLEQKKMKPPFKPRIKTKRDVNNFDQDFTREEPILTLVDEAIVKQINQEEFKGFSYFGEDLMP
Assay: PKC activity enhancing effect in cultured cells (PKCε migration from cytosol to membrane fraction, western blotting)
Assay type: cell-based
Details: cultured cerebral cortex cells of Wistar/ST rat fetuses, 0.1 μmol/L in terms of T-817
Protocol: The PKC activity was determined, according to the method of Etcheberrigaray et al. (Proceedings of the National Academy of Sciences of the United States of America, 2004, Vol. 101, No. 30, p. 11141-11146), as applicable. At the time of activation, PKC migrates from the cytoplasm to membranes. The PKC level in the membrane fraction over that in the cytosol fraction was taken as the index of PKC activation. In this experiment, the activity of PKCε, a known isoform of PKC, was measured.
Cultured cells were prepared following the method of Hirata et al. (J. Pharmacol. Exp. Ther., 2005, Vol. 314, No. 1, p. 252-259). […]
On Day 8 from the start of the culturing, T-817MA was added to the cells to a final concentration of 0.1 μmol/L, in terms of T-817. […] The protein concentration in the cytosol fraction and the membrane fraction was measured, and the protein content in each sample was adjusted to a certain constant level with the extraction buffer or the extraction buffer containing Triton X-100. […] Then, after washing with PBST, the membrane was treated with ECL plus reagent (manufactured by GE Healthcare Bio-Sciences) and the luminescence was detected by a Lumino Image Analyzer. […]

PKCε migration from the cytoplasm to membranes (index of PKC activation) (2 hours after treatment): migrated from the cytoplasm to membranes | PKCε migration from the cytoplasm to membranes (index of PKC activation) (4 hours after treatment): migrated from the cytoplasm to membranes
SMILES: OC1CN(CCCOCCc2ccc3sccc3c2)C1 [T-817MA, 1-(3-(2-(1-benzothiophen-5-yl)ethoxy)propyl)azetidin-3-ol]
